pEC50, pIC50: −log10 of the molar value. Where two headings read alike, the source gives them in different places.

Test [1] has as its target MCL-1/Bim interaction (recombinant human MCL-1 protein, residues 171-327; biotinylated human Bim peptide, residues 51-76) (Homo sapiens (Human), UniProt Q07820). The test can be described thus: MCL-1/Bim Binding AlphaLISA Assay. The note with it: 0.0625 nM 6xHis-Mcl-1 (171-327), 0.0625 nM biotinylated-Bim peptide. An outline of the steps:
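AlphaLISA with 0.0625 nM His-tagged MCL-1 and 0.0625 nM biotin-Bim peptide in 20 mM Hepes pH 7.5, 150 mM NaCl, 0.002% Brij 35, 1 mM DTT, 0.01% BSA. Compound preincubated 1 h with MCL-1, Bim added for 2 h, then acceptor and donor beads 1 h each.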
In general terms: Alpha assays give light when donor and acceptor beads are brought close together.

Another test relates to SKBR3 cells. As to the kind of experiment: SKBR3 Cell Viability Assay (CellTiter Glo). The class given is cell-based. The note with it: CellTiter Glo luminescence, read-out: MCL-1 CV SKBR3 EC50. As to the method: SKBR3 Cell Viability Assay Materials
SKBR3 Cells (ATCC HTB-30) were obtained from ATCC (Manassas, Va.) and cultured in McCoy 5A's medium (ATCC 30-2007)+10% fetal bovine serum (SH30071.03, HyClone, Pittsburgh, Pa.) plus 1× Penicillin-Streptomycin L-glutamine (Corning 30-009-C1, Corning, N.Y.)).
The cell viability assay was conducted in a 384-well tissue culture plate (Grenier 781086, Monroe, N.C.) in a total volume of 70 μL. Test compounds were prepared in 1,000×, serially diluted, and pre-spotted into 384-well tissue culture plate by Echo 555 Liquid Handler (Labcyte Inc., San Jose, Calif.). Seventy μl of 6,000 SKBR3 cells were dispensed into each well of the plate and incubated at 37° C. with 5% CO2 for 72 hours. At the end of incubation, 2× CellTiter Glo (CTG) reagents (1 part buffer with 2 parts substrate) (Promega, Madison, Wis.) were prepared, and the plate and the reagent were equilibrated to room temperature for 30 minutes. CTG reagent was added to each plate by Biomek FX at 20 μL/well with 5 times pipetting and mixing to induce cell lysis. Luminescence was read by Envision multimode reader (PerkinElmer). […] Percent inhibition was calculated as followed: % Inhibition=100%*(Well−Neg)/(Pos−Neg) Neg, negative control, DMSO Pos, positive control, 10 μM Puromycin
A general note: In ATP-based viability assays light output follows the ATP content of the culture.

Chain of MCL-1/Bim interaction (recombinant human MCL-1 protein, residues 171-327; biotinylated human Bim peptide, residues 51-76) (Q07820 171-327): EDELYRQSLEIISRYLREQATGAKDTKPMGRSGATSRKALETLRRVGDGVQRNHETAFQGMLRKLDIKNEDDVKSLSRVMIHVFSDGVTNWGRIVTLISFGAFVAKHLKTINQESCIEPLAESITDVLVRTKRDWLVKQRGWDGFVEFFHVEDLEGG

As usually defined, the pIC50 is the negative decadic logarithm of the IC50, by convention in mol/L. As usually defined, the pEC50 is −log10 of the EC50, conventionally taken in molar units. Consider `CO[C@H]1/C=C/C[C@H](C)C[S@@](=O)(NC(=O)c2cc3c([nH]2)CCOC3)=NC(=O)c2ccc3c(c2)N(C[C@@H]2CC[C@H]21)C[C@@]1(CCCc2cc(Cl)ccc21)CO3` [Example 158], for which, in test [1], the pIC50 is 9.87. The pEC50 in the test with SKBR3 cells (Homo sapiens, SK-BR-3, 72 h) was 7.32.
For `CO[C@H]1/C=C/C[C@H](C)C[S@@](=O)(NC(=O)NC2COC2)=NC(=O)c2ccc3c(c2)N(C[C@@H]2CC[C@H]21)C[C@@]1(CCCc2cc(Cl)ccc21)CO3` [Example 428], the pIC50 in test [1] is 10.16. Also, the pEC50 in the test on SKBR3 cells (Homo sapiens, SK-BR-3, 72 h) is 6.78.
On the same counts, the results for `CO[C@H]1/C=C/CCC[S@@](=O)(NC(=O)c2cc3ccccc3n2C)=NC(=O)c2ccc3c(c2)N(C[C@@H]2CC[C@H]21)C[C@@]1(CCCc2cc(Cl)ccc21)CO3` [Example 98] are 9.52 and 5.66.
The matching figures for `CO[C@H]1/C=C/C[C@H](C)C[S@@](=O)(NC(=O)NC23CC(OC)(C2)C3)=NC(=O)c2ccc3c(c2)N(C[C@@H]2CC[C@H]21)C[C@@]1(CCCc2cc(Cl)ccc21)CO3` [Example 361]: 10.26 and 7.36.
The matching figures for `CO[C@H]1/C=C/C[C@H](C)C[S@@](=O)(NC(=O)c2cc3n(c2)CCc2c-3cnn2C)=NC(=O)c2ccc3c(c2)N(C[C@@H]2CC[C@H]21)C[C@@]1(CCCc2cc(Cl)ccc21)CO3` [Example 208]: 9.87 and 7.35.
In the case of `CO[C@H]1/C=C/C[C@H](C)C[S@@](=O)(NC(=O)[C@@]23COCC2C3)=NC(=O)c2ccc3c(c2)N(C[C@@H]2CC[C@H]21)C[C@@]1(CCCc2cc(Cl)ccc21)CO3` (stereo partly drawn) [Example 446], the pIC50 in test [1] was 9.83. For the same molecule, in the test on SKBR3 cells (Homo sapiens, SK-BR-3, 72 h), the pEC50 is 6.76.
The matching figures for `COC(=O)N1CC(NC(=O)N[S@@]2(=O)=NC(=O)c3ccc4c(c3)N(C[C@@H]3CC[C@H]3[C@@H](OC)/C=C/C[C@H](C)C2)C[C@@]2(CCCc3cc(Cl)ccc32)CO4)C1` [Example 114]: 10.37 and 6.81.
The matching figures for `COc1nn(C)cc1C(=O)N[S@@]1(=O)=NC(=O)c2ccc3c(c2)N(C[C@@H]2CC[C@H]2[C@@H](OC)/C=C/[C@H](Oc2cnccn2)[C@H](C)C1)C[C@@]1(CCCc2cc(Cl)ccc21)CO3` [Example 288]: 9.84 and 6.77.
The matching figures for `COc1nn(C)cc1C(=O)N[S@@]1(=O)=NC(=O)c2ccc3c(c2)N(C[C@@H]2CC[C@H]2[C@@H](OC(=O)[C@@H](N)C(C)C)/C=C/C[C@H](C)[C@H]1C)C[C@@]1(CCCc2cc(Cl)ccc21)CO3` [Example 254]: 9.90 and 6.81.
Consider `CO[C@H]1/C=C/C[C@H](C)C[S@@](=O)(NC(=O)NC2CC3(COC3)C2)=NC(=O)c2ccc3c(c2)N(C[C@@H]2CC[C@H]21)C[C@@]1(CCCc2cc(Cl)ccc21)CO3` [Example 217], for which the pIC50 in test [1] was 10.19. In the test with SKBR3 cells (Homo sapiens, SK-BR-3, 72 h), the pEC50 was 7.08.
For the molecule `CO[C@H]1/C=C/C[C@H](C)C[S@@](=O)(NC(=O)N[C@@H]2C[C@H]2OC)=NC(=O)c2ccc3c(c2)N(C[C@@H]2CC[C@H]21)C[C@@]1(CCCc2cc(Cl)ccc21)CO3` (single isomer, unassigned) [Example 196], the pIC50 in test [1] was 10.40. The pEC50 with SKBR3 cells (72 hours) is 7.00.
As to `CCn1cc(C(=O)N[S@@]2(=O)=NC(=O)c3ccc4c(c3)N(C[C@@H]3CC[C@H]3[C@@H](OC)/C=C/C[C@H](C)C2)C[C@@]2(CCCc3cc(Cl)ccc32)CO4)cn1` [Example 134], the pIC50 in test [1] is 10.14. Besides, the pEC50 with SKBR3 cells (Homo sapiens, SK-BR-3, 72 h) was 7.23.
The matching figures for `CO[C@H]1/C=C/C[C@H](C)C[S@@](=O)(NC(=O)c2cn(C)c3nccnc23)=NC(=O)c2ccc3c(c2)N(C[C@@H]2CC[C@H]21)C[C@@]1(CCCc2cc(Cl)ccc21)CO3` [Example 450]: 9.63 and 6.78.
The matching figures for `CO[C@H]1/C=C/C[C@H](C)C[S@@](=O)(NC(=O)COC2CC2)=NC(=O)c2ccc3c(c2)N(C[C@@H]2CC[C@H]21)C[C@@]1(CCCc2cc(Cl)ccc21)CO3` [Example 445]: 10.04 and 6.68.
The matching figures for `CCC(=O)N[S@@]1(=O)=NC(=O)c2ccc3c(c2)N(C[C@@H]2CC[C@H]2[C@@H](OCCN2CCN(C)CC2)/C=C/CCC1)C[C@@]1(CCCc2cc(Cl)ccc21)CO3` [Example 68]: 7.33 and 5.20.
As for `CO[C@H]1/C=C/C[C@H](C)[C@@H](C)[S@@](=O)(NC(=O)c2cc3n(c2)CCOC3)=NC(=O)c2ccc3c(c2)N(C[C@@H]2CC[C@H]21)C[C@@]1(CCCc2cc(Cl)ccc21)CO3` [Example 137], the pIC50 in test [1] was 9.31. Also, the pEC50 in the test with SKBR3 cells (Homo sapiens, SK-BR-3, 72 h) is 6.98.
The matching figures for `CO[C@H]1/C=C/C[C@H](C)C[S@@](=O)(NC(=O)N2CC(OC3CC3)C2)=NC(=O)c2ccc3c(c2)N(C[C@@H]2CC[C@H]21)C[C@@]1(CCCc2cc(Cl)ccc21)CO3` [Example 263]: 10.14 and 7.21.
As to `CO[C@H]1/C=C/C[C@H](C)C[S@@](=O)(NC(=O)c2cc(CN3CCN4CCOC[C@@H]4C3)n(C)c2)=NC(=O)c2ccc3c(c2)N(C[C@@H]2CC[C@H]21)C[C@@]1(CCCc2cc(Cl)ccc21)CO3` [Example 238], the pIC50 in test [1] was 10.48. Besides, the pEC50 in the test on SKBR3 cells (Homo sapiens, SK-BR-3, 72 h) is 7.63.
For the molecule `CO[C@H]1/C=C/CCC[S@@](=O)(NC(=O)CCc2ccco2)=NC(=O)c2ccc3c(c2)N(C[C@@H]2CC[C@H]21)C[C@@]1(CCCc2cc(Cl)ccc21)CO3` [Example 88], in test [1], the pIC50 was 8.82. Moreover, in the test with SKBR3 cells (Homo sapiens, SK-BR-3, 72 h), the pEC50 was 5.59.
On the same counts, the results for `CO[C@H]1/C=C/C[C@H](C)C[S@@](=O)(NC(=O)N2CC(OC)(C(F)(F)F)C2)=NC(=O)c2ccc3c(c2)N(C[C@@H]2CC[C@H]21)C[C@@]1(CCCc2cc(Cl)ccc21)CO3` [Example 246] are 10.02 and 6.75.
Take `COCCOC1CCN(C(=O)N[S@@]2(=O)=NC(=O)c3ccc4c(c3)N(C[C@@H]3CC[C@H]3[C@@H](OC)/C=C/C[C@H](C)C2)C[C@@]2(CCCc3cc(Cl)ccc32)CO4)CC1` [Example 234]: the pIC50 in test [1] is 10.28. Moreover, the negative logarithm of the EC50 (pEC50) in the test with SKBR3 cells (Homo sapiens, SK-BR-3, 72 h) is 7.13.
On the same counts, the results for `C[C@H]1C/C=C/[C@H](OCC2CC2)[C@@H]2CC[C@H]2CN2C[C@@]3(CCCc4cc(Cl)ccc43)COc3ccc(cc32)C(=O)N=[S@](=O)(NC(=O)c2cnn(C)c2)C1` [Example 410] are 9.71 and 6.84.
The matching figures for `COc1ncc(C(=O)N[S@@]2(=O)=NC(=O)c3ccc4c(c3)N(C[C@@H]3CC[C@H]3[C@@H](OC)/C=C/C[C@H](C)C2)C[C@@]2(CCCc3cc(Cl)ccc32)CO4)cn1` [Example 273]: 10.11 and 7.09.
The matching figures for `CO[C@H]1/C=C/CCC[S@@](=O)(NC(=O)N2CCS(=O)(=O)CC2)=NC(=O)c2ccc3c(c2)N(C[C@@H]2CC[C@H]21)C[C@@]1(CCCc2cc(Cl)ccc21)CO3` [Example 73]: 9.52 and 5.61.
Regarding `CO[C@H]1/C=C/C[C@H](C)C[S@@](=O)(NC(=O)N2CC(OC(=O)N3CCOCC3)C2)=NC(=O)c2ccc3c(c2)N(C[C@@H]2CC[C@H]21)C[C@@]1(CCCc2cc(Cl)ccc21)CO3` [Example 387], in test [1], the pIC50 was 9.99. The pEC50 in the test on SKBR3 cells (Homo sapiens, SK-BR-3, 72 h) is 6.79.
On the same counts, the results for `CCO[C@H]1/C=C/[C@H](OC)[C@@H]2CC[C@H]2CN2C[C@@]3(CCCc4cc(Cl)ccc43)COc3ccc(cc32)C(=O)N=[S@](=O)(NC(=O)c2cn(C)nc2OC)C[C@H]1C` [Example 296] are 10.28 and 7.19.
The matching figures for `CO[C@H]1/C=C/C[C@H](C)C[S@@](=O)(NC(=O)NC2CCC2)=NC(=O)c2ccc3c(c2)N(C[C@@H]2CC[C@H]21)C[C@@]1(CCCc2cc(Cl)ccc21)CO3` [Example 423]: 10.25 and 6.77.
The matching figures for `CO[C@H]1/C=C/C[C@H](C)C[S@@](=O)(NC(=O)N[C@@H]2CC[C@H]2OC)=NC(=O)c2ccc3c(c2)N(C[C@@H]2CC[C@H]21)C[C@@]1(CCCc2cc(Cl)ccc21)CO3` [Example 179]: 9.99 and 7.08.
Consider `COc1nn(C)cc1C(=O)NS1(=O)=NC(=O)c2ccc3c(c2)N(C[C@@H]2CC[C@H]2[C@@H](OC)/C=C/[C@H](OC(=O)CCc2ccccc2)[C@H](C)C1)C[C@@]1(CCCc2cc(Cl)ccc21)CO3` (single isomer, unassigned) [Example 378], for which, in test [1], the pIC50 was 8.94. Moreover, the pEC50 in the test with SKBR3 cells (72 hours) was 5.93.
As to `CO[C@H]1/C=C/C[C@H](C)C[S@@](=O)(NC(=O)N[C@H]2C[C@@H]2CO)=NC(=O)c2ccc3c(c2)N(C[C@@H]2CC[C@H]21)C[C@@]1(CCCc2cc(Cl)ccc21)CO3` [Example 171], the pIC50 in test [1] is 10.48. The pEC50 in the test with SKBR3 cells (Homo sapiens, SK-BR-3, 72 h) was 6.89.

The record behind these values is US10703733B2, “MCL-1 inhibitors” (Gilead Sciences, Inc., priority 2018, dated 2020).
